Data published in PMC5595280, “Cytotoxicity and anti-tumor effects of new ruthenium complexes on triple negative breast cancer cells” (PLoS ONE, 2017).

Tests used:
Type in all cases: cell-based, human
MDA-MB-231 cells [1] = assay: Apoptosis by flow cytometry (PE-Annexin-V / 7AAD); settings: MDA-MB-231, 20 μM, 3 h
Protocol: (§1) MDA-MB-231 and MCF-10A cells (1.0 x 10^5/mL) were seeded in 12-well plates in a complete DMEM medium and incubated for 24 h. After this period the medium was removed and cells were incubated or not (control) with different concentrations of complex (4), for 3 h at 37°C and 5% CO2. After treatment the plate was centrifuged at 2000 rpm for 5 min at 4°C, washed with PBS and resuspended in 400 μL of binding buffer from the kit. Cells were incubated with 10 μL of 7AAD and 10 μL of PE-Annexin-V for 15 min protected from light. After the incubation period the supernatant was removed and 400 μL of binding buffer were added to the wells. Cells were then removed from the wells with the aid of a scraper and transferred to flow cytometry tubes. The reading was performed in Accuri C6 flow cytometer (BD Biosciences) and fluorescence emitted by each dye was quantified using CellQuest software (BD Biosciences).

MCF-10A cells = assay: Apoptosis by flow cytometry (PE-Annexin-V / 7AAD); settings: 20 μM, 3 h
Protocol: as §1

[2] = test system: Bax, Caspase-3 and Bcl-2 gene expression in MDA-MB-231 cells; assay: RT-qPCR of apoptosis related genes; settings: 40 μM, 3 h
Protocol: MDA-MB-231 cells (1.0 x 10^6/plate) were incubated for 3 h with (20 and 40 μM) or without (control) the complex (4) in Petri dishes (6 cm) at 37°C in a humidified incubator with 5% CO2. Total RNA was extracted using Trizol reagent (Invitrogen). cDNAs were synthesized using Enhanced Avian RT First Strand Synthesis kit (Sigma-Aldrich, St. Louis, MO, USA). A Rotor-Gene 6000 real-time rotary analyzer (Corbett Life Science, Australia) was used to amplify both target and internal control templates (1 cycle at 95°C for 5 min and 40 amplification cycles at 95°C for 30 sec, 55°C for 30sec and 72°C for 45sec). In brief, 1 μL of reverse transcribed product template, 5 μL of SYBR Green JumpStart Taq ReadyMix (Sigma-Aldrich) and the gene-specific primer pairs at a final concentration of 500 nmol l^-1 for each primer, made 10 μL of reaction system. Primers used in the assays were: Caspase-3 (Forward: 5’GTG CTA CAA TGC CCC TGG AT3’; Reverse: 5’GCCCATTCATTTATTGCTTTC C3’), Bax (Forward: 5’CAT CCA GGA TCG AGC AGG3’; Reverse: 5’CGA TGC GCT TGA GAC ACT C3), Bcl-2 (Forward: 5’GGT GGG AGG GAG GAA GAA T3’; Reverse: 5’GCA GAG GCA TCA CAT CGA C3’) and β-actin (Forward: 5’GACGGCCAGGTCATCACCATT G3’; Reverse: 5’AGCACTGTGTTGGCGTACAGG 3’). Bax primers (NM_001291428.1) and Bcl-2 (NM_000633.2) were designed with Gene Runner available at http://generunner.net/ (version5.0.63 Beta), except for the primer Caspase-3 (NM_004346.3). For each gene, all samples were amplified simultaneously in duplicate in one assay run. The internal calibrator used as a basis to standardize the results of expression was the control group ΔCts average. Calibration was determined by ΔΔCt = ΔCt (sample) − ΔCt (calibrator). Gene expression was assessed by relative quantification, using the formula 2-ΔΔCt and β-actin as internal control. Data represent three assays in duplicate. A blank with water, primers and SYBR Green instead of template sample was performed.

MDA-MB-231 cells [3] = assay: Colony formation (clonogenic) assay; settings: 3 h treatment, 10 days
Protocol: Exponentially growing MDA-MB-231 cells were harvested, counted and seeded (300 cells/plate) into Petri dishes. Cells were allowed to grow at 37°C in 5% CO2 overnight and then, treated with different concentrations of complex (4) for 3 h. After this time, the medium was changed to a fresh medium without any complex. After incubation for additional 10 days the cells were rinsed with PBS, fixed with methanol and acid acetic 3:1 for 5 min and stained with methanol and crystal violet 5% for 15min. Relative survival was calculated from the number of single cells that formed colonies of >50 cells on the tenth day.

MDA-MB-231 cells [4] = assay: Phalloidin staining of F-actin cytoskeleton; settings: 30 min
Protocol: To examine the effects of complex (4) on the F-actin cytoskeleton organization in MDA-MB-231 cells, Alexa Fluor® 488 Phalloidin was used to stain the F-actin fibers. MDA-MB-231 cells (5x10^4 cells/100 μL) were plated in 96-well plates and maintained at 37°C in a humidified incubator with 5% CO2 for 24 h. In the next day, cells were treated with 10, 20, 40 μM of complex (4) and incubated for 30 min. Next, cells were washed with PBS, fixed with 3.7% paraformaldehyde in PBS for 30 min and then permeabilized with 0.1% Triton-X 100 in PBS for 5min at room temperature. Blocking was performed with 2% BSA for 30 min, followed by the addition of Alexa Fluor 488 Phalloidin for 20 min. Cells were then stained with DAPI for nuclear labeling for 10min and finally washed again with PBS for three times. Images were obtained with an automated microscope ImageXpress® Micro XLS System (Molecular Devices).

MMP-9 = assay: Gelatin zymography of wound healing supernatants; settings: 24 h
Protocol: MDA-MB-231 cells (1.0 x 10^5/well) were seeded into 12-wells culture plates and cultured in a medium containing FBS 10% to near confluence (80%) of the cell monolayer. Monolayers were carefully wounded using a pipette tip, and any cellular debris present was removed by washing with PBS. The wounded monolayers were then incubated in serum-free medium containing 2.5, 5, 10 and 20 μM of complex (4) for 24 h. After this time, supernatants of the wound healing assay were collected and tested for MMP secretion as previously described. Briefly, equal amounts of total protein ([…]) were subjected to electrophoresis. Zymography gels consisted of 10% polyacrylamide impregnated with gelatin at a final concentration of 1% in the presence of sodium dodecyl sulfate (SDS) under non-reducing conditions. […] Gels were then stained with coomassie brilliant blue for 30 min and destained in methanol and acetic acid for 20 min. Gelatin degrading enzymes were visualized as clear white bands against a blue background, indicating proteolysis of the substrate protein. The molecular mass of gelatinolytic activities was determined by comparison to reference protein molecular mass marker PageRuler Prestained Protein Ladder (Thermo Fisher Scientific). Activity bands were identified following the previous description according to their molecular weights.

CC(=O)[O-].F[P-](F)(F)(F)(F)F.[Ru+2].c1ccc(-c2ccccn2)nc1.c1ccc(P(CCCCP(c2ccccc2)c2ccccc2)c2ccccc2)cc1 [Complex (4), [Ru(CH3CO2)(dppb)(bipy)]PF6]
cells suffering apoptosis (MDA-MB-231 cells [1]): 74.4% | cells suffering apoptosis (MCF-10A cells): 14.9% | Bax gene expression [2]: upregulated | Bcl-2 gene expression [2]: did not affect | Caspase-3 gene expression [2]: upregulated | effect on colony formation (MDA-MB-231 cells [3]; 20 μM): completely abolished the capacity of breast tumor cells to form colonies | effect on colony number and size (MDA-MB-231 cells [3]; 2.5, 5, 10 and 20 μM): significantly inhibited the colony number and size | effect on actin cytoskeleton structure (MDA-MB-231 cells [4]; 10, 20 and 40 μM): strongly modified the structure of the actin cytoskeleton | effect on cytoskeleton density (MDA-MB-231 cells [4]; 20 and 40 μM): decrease in cytoskeleton density | inhibition of expression of MMP-9 compared to untreated control (MMP-9; 20 μM): 60% | effect on expression of MMP-9 (MMP-9; 2.5, 5 and 10 μM): did not inhibit the expression of MMP-9
